target: human plasma kallikrein (Homo sapiens, UniProt P03952); test: Kallikrein inhibition FLINT assay with quenched AMC peptide substrate Z-Gly-Pro-Arg-AMC (end point EP or kinetic KIN reads); type: biochemical; conditions: kinetic reads at 5 min intervals over 30 min; read-out: Kallikrein (KIN) IC50
Method in brief: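 Enzyme and compound were preincubated 30 min before adding 50 μM AMC substrate in pH 7.5 Tris/NaCl/CaCl2/BSA/CHAPS buffer. AMC release was read at 30 min endpoint or every 5 min.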

human plasma kallikrein, sequence (P03952 391-638 limits assumed): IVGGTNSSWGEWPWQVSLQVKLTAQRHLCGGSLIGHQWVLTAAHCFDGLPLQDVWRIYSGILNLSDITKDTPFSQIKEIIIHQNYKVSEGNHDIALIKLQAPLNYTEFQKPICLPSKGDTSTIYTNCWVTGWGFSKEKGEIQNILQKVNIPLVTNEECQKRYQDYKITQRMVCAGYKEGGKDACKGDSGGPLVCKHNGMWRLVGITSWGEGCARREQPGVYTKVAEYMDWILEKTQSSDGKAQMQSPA
human plasma kallikrein, sequence (P03952 20-390 partner limits assumed): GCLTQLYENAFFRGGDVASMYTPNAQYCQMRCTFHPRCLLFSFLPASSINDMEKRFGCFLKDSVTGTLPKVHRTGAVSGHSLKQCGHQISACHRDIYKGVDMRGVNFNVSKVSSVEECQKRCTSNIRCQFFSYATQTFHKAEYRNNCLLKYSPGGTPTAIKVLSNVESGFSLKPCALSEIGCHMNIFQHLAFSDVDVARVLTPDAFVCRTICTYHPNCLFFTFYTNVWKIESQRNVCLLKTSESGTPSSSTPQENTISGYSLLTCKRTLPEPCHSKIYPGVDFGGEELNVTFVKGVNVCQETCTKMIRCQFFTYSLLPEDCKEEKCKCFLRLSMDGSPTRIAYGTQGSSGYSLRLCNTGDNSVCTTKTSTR

| Structure (SMILES) | IC50 [nM] |
| --- | --- |
| COc1cc(C(CC2CC2)n2cc(-c3ncnn3C)cn2)[n+]([O-])cc1-c1cc(Cl)ccc1C#N (single isomer, unassigned) [Example Q61] | 281 |
| Cn1nncc1-c1cnn([C@@H](Cc2ccc(C(F)(F)F)nc2)c2ccc(-c3c(-n4cc(Cl)nn4)ccc(Cl)c3F)c[n+]2[O-])c1 [Example P773] | 4210 |
| [O-][n+]1cc(-c2c(-n3cnnn3)ccc(Cl)c2F)ccc1C(CC1CC1)n1cc(-c2cnnn2C2CC2)cn1 (stereo not shown) [Example P524] | 428 |
| COC(=O)Nc1ccc(-c2cnn(C(Cc3cccc(OC)c3)c3ccc(-c4c(-n5cnnn5)ccc(Cl)c4F)c[n+]3[O-])c2)cc1 (single isomer, unassigned) [Example P206] | 137 |
| NC(=O)c1ccc(-c2cnn(C(Cc3ccn(C(F)F)n3)c3ccc(-c4cc(Cl)ccc4-n4cc(C(F)(F)F)nn4)c[n+]3[O-])c2)cc1F (single isomer, unassigned) [Example P905] | 889 |
| [O-][n+]1cc(-c2c(-n3cc(Cl)nn3)ccc(Cl)c2F)ccc1C(Cn1cc(F)cn1)n1cc(-c2ccnc(C(F)(F)F)c2)cn1 (stereo not shown) [Example P479] | 185 |
| Cn1ncnc1-c1cnn(C(CC2CNCCO2)c2ccc(-c3c(-n4cc(C(F)(F)F)nn4)ccc(Cl)c3F)c[n+]2[O-])c1 (stereo not shown) [Example P934] | 326 |
| COCC[C@H](c1ccc(-c2c(-n3cnnn3)ccc(Cl)c2F)c[n+]1[O-])n1cc(-c2nn(C(F)F)cc2Cl)cn1 [Example P576] | 62.4 |
| Cn1ccc(CC(c2ccc(-c3c(-n4cnnn4)ccc(Cl)c3F)c[n+]2[O-])n2cc(-c3ccnc(C(F)(F)F)c3)cn2)n1 (single isomer, unassigned) [Example P378] | 140 |
| CC1CC1CC(c1ccc(-c2c(-n3cnnn3)ccc(Cl)c2F)c[n+]1[O-])n1cc(-c2ncnn2C(F)F)cn1 (stereo not shown) [Example P765] | > 100 |
| COCC[C@H](c1ccc(-c2c(-n3cc(OC(F)F)nn3)ccc(Cl)c2F)c[n+]1[O-])n1cc(-c2cnnn2C)cn1 [Example P616] | 205 |
| COCCC(c1ccc(-c2c(-n3cnnn3)ccc(Cl)c2F)c[n+]1[O-])n1cc(C2CCN(C(=O)OC)CC2)cn1 (stereo not shown) [Example P166] | 923 |
| [O-][n+]1cc(-c2c(-n3cnnn3)ccc(Cl)c2F)ccc1[C@@H](CC1CC1)n1cc(-c2ncnn2C(F)F)cn1 [Example P762] | 249 |
| COC(=O)Nc1ccc(-c2cnn(C(CC3CC(C)(C)C3)c3ccc(-c4c(-n5cnnn5)ccc(Cl)c4F)c[n+]3[O-])c2)cc1 (stereo not shown) [Example P126] | 248 |
| COCC[C@H](c1ccc(-c2c(-n3cc(Cl)nn3)ccc(Cl)c2F)c[n+]1[O-])n1cc(-c2c(F)cnn2C(F)F)cn1 [Example P626] | 322 |
| Cn1cc(-c2cnn(C(CC3CC3)c3ccc(-c4c(-n5cnnn5)ccc(Cl)c4F)c[n+]3[O-])c2)ccc1=O (stereo not shown) [Example P216] | 296 |
| [O-][n+]1cc(-c2c(C(F)F)ccc(Cl)c2F)ccc1C(Cn1cc(F)cn1)n1cc(-c2ccnc(C(F)(F)F)c2)cn1 (single isomer, unassigned) [Example Q22] | 806 |
| Cn1nncc1-c1cnn([C@H](Cc2ccn(C(F)F)n2)c2ccc(-c3c(-n4cc(C(F)(F)F)nn4)ccc(Cl)c3F)c[n+]2[O-])c1 [Example P792] | 76.2 |
| O=C(O)c1ccc(-c2cnn(C(CC3CC3)c3ccc(-c4c(C(F)F)ccc(Cl)c4F)c[n+]3[O-])c2)cc1 (single isomer, unassigned) [Example Q13] | 97.1 |
| CC(C)n1nncc1-c1cnn(C(CCOC(F)F)c2ccc(-c3c(-n4cc(C(F)(F)F)nn4)ccc(Cl)c3F)c[n+]2[O-])c1 (stereo not shown) [Example P803] | ~93 |
| O=C(O)c1ccc(-c2cnn(C(c3ccc(-c4cc(Cl)ccc4-n4cnnn4)c[n+]3[O-])C(O)c3ccccc3)c2)cc1 (single isomer, unassigned) [Example P118] | 64.9 |
| Cn1cnc(Cl)c1-c1cnn([C@H](CC2CC2)c2ccc(-c3c(-n4cnnn4)ccc(Cl)c3F)c[n+]2[O-])c1 [Example P848] | 185 |
| Cn1cncc1-c1cnn(C(CC2CC2)c2ccc(-c3c(-n4cnnn4)ccc(Cl)c3F)c[n+]2[O-])c1 (stereo not shown) [Example P495] | 211 |
| CN(CC(c1ccc(-c2c(-n3cnnn3)ccc(Cl)c2F)c[n+]1[O-])n1cc(-c2ccnc(C(F)(F)F)c2)cn1)C(=O)C1CC1 (single isomer, unassigned) [Example P428] | 64.1 |
| [O-][n+]1cc(-c2c(-n3cc(Cl)nn3)ccc(Cl)c2F)ccc1[C@@H](Cn1cc(OC(F)F)cn1)n1cc(-c2cn(C(F)F)nn2)cn1 [Example P655] | 734 |
| Cn1ncc(Cl)c1-c1cnn(C(CC2CC2)c2ccc(-c3c(-n4cnnn4)ccc(Cl)c3F)c[n+]2[O-])c1 (stereo not shown) [Example P555] | 573 |
| [O-][n+]1cc(-c2c(-n3cnnn3)ccc(Cl)c2F)ccc1C(CC1CC1)n1cc(-c2ncns2)cn1 (stereo not shown) [Example P525] | 812 |
| CCC(c1ccc(-c2c(-n3cnnn3)ccc(Cl)c2F)c[n+]1[O-])n1cc(-c2cc[n+]([O-])cc2)cn1 (single isomer, unassigned) [Example P234] | 298 |

Further molecules by falling IC50, results first:

| IC50 [nM] | Structure (SMILES) |
| --- | --- |
| 61.3 | CN(C)C(=O)CC(c1ccc(-c2c(-n3cc(C(F)(F)F)nn3)ccc(Cl)c2F)c[n+]1[O-])n1cc(-c2ccc(C(N)=O)c(F)c2)cn1 (stereo not shown) [Example P884] |
| 54.9 | CCC(c1cc(OC)c(-c2cc(Cl)ccc2-n2cc(C(F)(F)F)nn2)c[n+]1[O-])n1cc(-c2ncnn2C)cn1 (single isomer, unassigned) [Example P922] |
| 54.6 | CC(=O)N(C)CC(c1ccc(-c2c(-n3cnnn3)ccc(Cl)c2F)c[n+]1[O-])n1cc(-c2ccncc2)cn1 (stereo not shown) [Example P302] |
| 46.8 | CCn1ncc(-c2cnn(C(CC3CC3)c3cc(OC)c(-c4c(-n5cnnn5)ccc(Cl)c4F)c[n+]3[O-])c2)cc1=O (stereo not shown) [Example P170] |
| 38.8 | CN(CC(c1ccc(-c2c(-n3cnnn3)ccc(Cl)c2F)c[n+]1[O-])n1cc(-c2ccnc(F)c2)cn1)C(=O)OC(C)(C)C (single isomer, unassigned) [Example P354] |
| 38.3 | O=C1CCCN1CC(c1ccc(-c2c(-n3cnnn3)ccc(Cl)c2F)c[n+]1[O-])n1cc(-c2cc[n+]([O-])c(C(F)F)c2)cn1 (single isomer, unassigned) [Example P362] |
| 35.8 | N#Cc1cn(-c2ccc(Cl)c(F)c2-c2ccc([C@@H](CCOC(F)F)n3cc(-c4ncnn4C(F)F)cn3)[n+]([O-])c2)nn1 [Example P790] |
| 32.7 | COC(=O)N(C)CC(c1ccc(-c2c(-n3cnnn3)ccc(Cl)c2F)c[n+]1[O-])n1cc(-c2ccncc2)cn1 (stereo not shown) [Example P303] |
| 32.5 | N#Cc1cc(-c2cnn(C(CN3CCCC3=O)c3ccc(-c4c(-n5cnnn5)ccc(Cl)c4F)c[n+]3[O-])c2)ccn1 (stereo not shown) [Example P461] |
| 23.8 | Cn1nnc(F)c1-c1cnn(C(Cc2ccn(C(F)F)n2)c2ccc(-c3c(-n4cc(Cl)nn4)ccc(Cl)c3F)c[n+]2[O-])c1 (stereo not shown) [Example P797] |
| 22.1 | [O-][n+]1cc(-c2c(-n3cnnn3)ccc(Cl)c2F)ccc1C(C(O)c1ccccc1)n1cc(-c2ccnn2C(F)F)cn1 (single isomer, unassigned) [Example P716] |
| 18.3 | COC(=O)Nc1ccc(-c2cnn(C(Cc3ccc(Cl)cc3)c3ccc(-c4c(-n5cnnn5)ccc(Cl)c4F)c[n+]3[O-])c2)cc1 (stereo not shown) [Example P94] |
| 14.5 | COc1cc([C@@H](CC2CC2)n2cc(-c3ccc(C(=O)O)cc3)cn2)[n+]([O-])cc1-c1cc(Cl)ccc1C#N [Example Q51] |
| 14.5 | COCCC(c1ccc(-c2c(-n3cnnn3)ccc(Cl)c2F)c[n+]1[O-])n1cc(-c2ccc(NC(=O)OC)cc2)cn1 (single isomer, unassigned) [Example P84] |
| 11.8 | NC(=O)c1ccc(-c2cnn(C(Cn3cccn3)c3ccc(-c4c(-n5cc(C(F)(F)F)nn5)ccc(Cl)c4F)c[n+]3[O-])c2)cc1F (stereo not shown) [Example P948] |
| 9.7 | COC(=O)Nc1ccc(-c2cnn(C(Cc3ccc(F)cc3)c3ccc(-c4c(-n5cnnn5)ccc(Cl)c4F)c[n+]3[O-])c2)cc1 (stereo not shown) [Example P117] |
| 7.8 | O=C(O)c1ccc(-c2cnn(C(Cc3ccc(-c4ccccc4)cc3)c3ccc(-c4cc(Cl)ccc4-n4cnnn4)c[n+]3[O-])c2)cc1 (stereo not shown) [Example P62] |
| 7.5 | COC(=O)Nc1ccc(-c2cnn(C(Cc3ccccc3)c3ccc(-c4c(-n5cnnn5)ccc(Cl)c4F)c[n+]3[O-])c2)cc1 (stereo not shown) [Example P71] |
| 7.1 | O=C1CCCN1CC(c1ccc(-c2c(-n3cnnn3)ccc(Cl)c2F)c[n+]1[O-])n1cc(-c2ccnc(F)c2)cn1 (stereo not shown) [Example P257] |
| 6.9 | [O-][n+]1cc(-c2c(-n3cnnn3)ccc(Cl)c2F)ccc1C(CC1CC1)n1cc(-c2c[nH]nc2Cl)cn1 (stereo not shown) [Example P938] |
| 6.1 | [O-][n+]1cc(-c2c(-n3cnnn3)ccc(Cl)c2F)ccc1C(Cn1cccn1)n1cc(-c2ccncc2)cn1 (stereo not shown) [Example P269] |
| 5.1 | [O-][n+]1ccc(-c2cnn(C(Cc3ccc(F)cc3)c3ccc(-c4c(C(F)F)ccc(Cl)c4F)c[n+]3[O-])c2)cc1 (single isomer, unassigned) [Example Q18] |
| 3.9 | O=C(O)c1ccc(-c2cnn(C(CN3CCCC3=O)c3ccc(-c4c(C(F)F)ccc(Cl)c4F)c[n+]3[O-])c2)cc1 (single isomer, unassigned) [Example Q14] |
| 3.5 | [O-][n+]1cc(-c2c(-n3cnnn3)ccc(Cl)c2F)ccc1C(CCOC(F)F)n1cc(-c2ccncc2F)cn1 (stereo not shown) [Example P385] |
| 1.8 | O=C(O)C1CCN(C(=O)c2ccn(CC(c3ccc(-c4c(-n5cnnn5)ccc(Cl)c4F)c[n+]3[O-])n3cc(-c4ccncc4)cn3)n2)CC1 (stereo not shown) [Example P444] |
| 0.7 | [O-][n+]1ccc(-c2cnn(C(Cc3ccc(F)cc3)c3ccc(-c4c(-n5cnnn5)ccc(Cl)c4F)c[n+]3[O-])c2)cc1 (single isomer, unassigned) [Example P238] |
| 0.2 | NC(=O)c1ccc(-c2cnn(C(Cc3ccn(C(F)F)n3)c3ccc(-c4c(-n5cc(Cl)nn5)ccc(Cl)c4F)c[n+]3[O-])c2)cc1 (single isomer, unassigned) [Example P911] |
